Entries after “also recorded” stand apart in the source; their conditions may differ. Read-outs that look alike come from different tables or passages of the source.
Assays:
[1] = Metal-binding studies (UV spectra); assay type: physicochemical; details: UV 200–400 nm, compound 20 μM, CuCl2, FeCl2, ZnCl2, AlCl3 20 μM, methanol, 30 min
Protocol: The chelating studies were performed on an ultraviolet–visible spectrophotometry meter (HITACHI U-3900H, Tokyo, Japan). The UV absorption spectra of the test compound alone (20 μM, final concentration) or in the presence of CuCl2, FeCl2, ZnCl2 and AlCl3 (20 μM, final concentration) were recorded with the wavelength ranging from 200 to 400 nm after incubating for 30 min in methanol at room temperature.

[2] = target: T1, peripheral anionic site (PAS) of AChE (Electrophorus electricus, UniProt O42275); assay type: binding; details: test compounds 100 μM, propidium iodide 1 μM, AChE 5U
T1 construct: purchased Sigma-Aldrich (St. Louis, MO, USA)
Protocol: The assay mixture of AChE (5U) was incubated with test compounds (final concentration 100 μM, 150 μL) for 6 h at 25 °C. After reaction, 50 μL Propidium iodide (1 μM) was added. […] The percentage of displacement was calculated by the following expression: 100 − (IFi/IF0 × 100), where IFi and IF0 are the fluorescence intensities with and without the test compounds, respectively.

[3] = target: T2, BChE (EC 3.1.1.8, from equine serum) (Equus caballus, UniProt P81908); experiment: biochemical
T2 construct: purchased Sigma-Aldrich (St. Louis, MO, USA); host or cells: equine serum
Protocol: (§1) A Waters Acquity UPLC Class I/Xevo G2Q-Tof mass spectrometer (Milford, MA, USA) was used to obtain the high-resolution ESI-MS (HR-ESI-MS) data. ^1H and ^13C NMR spectra were acquired on a Bruker Avance III 400 spectrometer spectrometer (Karlsruhe, Germany) with TMS as an internal standard. ^1H-^1H DQF-COSY, NOESY, TOCSY, HSQC and HMBC spectra were recorded using standard Bruker programs spectrometer (Topspin 3.5pl6, Karlsruhe, Germany). […] Thin layer chromatography (TLC) analysis was performed on alumina plates coated with silica gel 60 and silica gel 60 RP-18 F254 (Merck) spectrometer (Darmstadt, Germany). Chromatographic separation was performed on self-packed columns with silica gel (Anhui Liangchen Silicon Material Co. Ltd., China) and reversed-phase silica gel (ODS-A 12 nm S-50 μm YMC Co., Kyoto, Japan). AChE (EC 3.1.1.7, from electric eel), BChE (EC 3.1.1.8, from equine serum), 5,5′-dithiobis(2-nitrobenzoic acid) (DTNB), acetylthiocholine iodide (ATCI), and butyrylthiocholine iodide (BTCI) were purchased from Sigma-Aldrich (St. Louis, MO, USA).
(§2) AChE (EC 3.1.1.7, from electric eel) and BChE (EC 3.1.1.8, from equine serum) were purchased from Sigma-Aldrich (St. Louis, MO, USA). […] After reaction for 15 min at 25 °C, 10 μL of 10 mM DTNB and 10 μL of 7.5 mM ATCI (BTCI) were added and then incubated for 40 min at 37 °C. […] Blank groups were set up by replacing the sample solution with 20 μL phosphate buffer (Ac). All tests were performed in triplicate.

[4] = target: T3, AChE (EC 3.1.1.7, from electric eel) (Electrophorus electricus, UniProt O42275); experiment: biochemical; assay type: biochemical; details: for SI for AChE = IC50 BChE/IC50 AChE: selectivity index for AChE over BChE
T3 construct: purchased Sigma-Aldrich (St. Louis, MO, USA)
Protocol: as §1, §2

AChE = target: T4, AChE (Electrophorus electricus, UniProt O42275); experiment: Enzyme kinetic analysis against AChE; assay type: biochemical; details: for Ki: Dixon and Cornish–Bowden plots; for type of AChE inhibition: Lineweaver–Burk plots, ATCI 3.75–15.00 mM; for reversibility of AChE inhibition: initial velocity versus enzyme concentration, AChE 0.025–0.10 U/mL
T4 construct: purchased Sigma-Aldrich (St. Louis, MO, USA)
Protocol: […]. Inhibition constants for AChE were determined from Dixon plot (1/Vi vs. (I)) and Cornish–Bowden transformation ((S)/Vi vs. (I)).

[5] = means ± SD, at least three independent experiments, read-out: IC50 BChE
[6] = means ± SD, at least three independent experiments, read-out: IC50 AChE

T2 sequence (P81908 whole entry): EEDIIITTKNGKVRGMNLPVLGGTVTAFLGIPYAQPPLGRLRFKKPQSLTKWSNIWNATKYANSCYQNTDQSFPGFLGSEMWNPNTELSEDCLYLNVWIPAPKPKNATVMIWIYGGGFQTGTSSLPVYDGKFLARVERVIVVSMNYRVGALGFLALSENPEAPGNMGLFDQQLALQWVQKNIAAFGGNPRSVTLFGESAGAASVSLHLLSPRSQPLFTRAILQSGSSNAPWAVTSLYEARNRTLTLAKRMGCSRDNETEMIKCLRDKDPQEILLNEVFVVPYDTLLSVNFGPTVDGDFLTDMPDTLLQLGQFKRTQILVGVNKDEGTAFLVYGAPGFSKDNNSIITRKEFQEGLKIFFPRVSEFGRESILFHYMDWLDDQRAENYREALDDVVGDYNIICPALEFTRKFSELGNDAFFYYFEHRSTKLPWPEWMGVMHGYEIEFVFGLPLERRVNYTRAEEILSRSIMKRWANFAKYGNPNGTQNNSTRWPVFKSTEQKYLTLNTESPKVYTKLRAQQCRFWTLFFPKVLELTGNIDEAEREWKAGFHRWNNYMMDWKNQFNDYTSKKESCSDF
T3 sequence (O42275 24-633): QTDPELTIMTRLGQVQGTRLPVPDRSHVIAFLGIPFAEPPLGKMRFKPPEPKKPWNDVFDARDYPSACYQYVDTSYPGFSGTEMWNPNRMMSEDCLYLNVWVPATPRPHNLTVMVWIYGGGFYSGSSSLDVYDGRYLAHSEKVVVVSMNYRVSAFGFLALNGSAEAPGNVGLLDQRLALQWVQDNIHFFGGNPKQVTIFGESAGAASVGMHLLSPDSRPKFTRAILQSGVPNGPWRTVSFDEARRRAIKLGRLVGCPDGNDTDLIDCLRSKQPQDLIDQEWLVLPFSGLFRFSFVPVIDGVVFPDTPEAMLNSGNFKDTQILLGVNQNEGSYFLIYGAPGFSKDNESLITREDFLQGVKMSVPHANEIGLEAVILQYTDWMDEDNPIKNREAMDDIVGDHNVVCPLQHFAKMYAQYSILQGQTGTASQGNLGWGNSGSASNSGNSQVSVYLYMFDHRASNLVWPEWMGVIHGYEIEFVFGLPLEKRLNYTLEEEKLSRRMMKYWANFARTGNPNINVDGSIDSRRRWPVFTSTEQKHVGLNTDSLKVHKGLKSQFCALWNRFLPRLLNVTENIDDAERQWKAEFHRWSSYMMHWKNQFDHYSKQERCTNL
T4 sequence (O42275 24-633): as above
T1 sequence (O42275 24-633): as above

Row | SMILES | metal binding ability toward Cu2+, Fe2+, Zn2+ and Al3+ [1] | Propidium Iodide Displacement [2] | IC50 [3, 5] | IC50 [4, 6] | SI for AChE = IC50 BChE/IC50 AChE [4] | Ki (AChE; read-out: inhibition constant Ki,c (competitive component)) | Ki (AChE; read-out: inhibition constant Ki,nc (non-competitive component)) | type of AChE inhibition (AChE) | reversibility of AChE inhibition (AChE) | reversibility of AChE inhibition (AChE; listed as Buthutin A) | IC50 [3] | IC50 [4] | IC50 AChE [4]
1 | N=C(N)NCCCCNC(=O)c1ccc(O)cc1 [Compound 1, N-(4-guanidinobutyl)-4-hydroxybenzamide] | satisfactory biometal binding abilities; also recorded: potent metal binding ability; also recorded: satisfactory metal-binding properties | 18.29 ± 0.53% | 47.4 ± 0.95 µM | 7.83 ± 0.06 µM | 6.05 | 2.64 ± 0.35 µM | 5.66 ± 0.82 µM | mixed type of inhibition | reversible inhibitors | reversible | – | – | –
2 | N=C(N)NCCCCNC(=O)c1ccccn1 [Compound 2, N-(4-guanidinobutyl)picolinamide] | – | 17.95 ± 0.98% | 123 ± 5.21 µM | 61.4 ± 2.34 µM | 1.99 | – | – | mixed type of inhibition | reversible inhibitors | – | – | – | –
3 | C[n+]1cccc(C(=O)[O-])c1 [Compound 3] | satisfactory biometal binding abilities; also recorded: potent metal binding ability; also recorded: satisfactory metal-binding properties | – | – | – | – | – | – | – | – | – | 442 ± 7.99 µM | 97.3 ± 4.18 µM | weaker inhibitory effect
4 | CC(C)CCSS [Compound 4, 3-methylbuthyl hydrodisulfide] | – | – | 153 ± 7.22 µM | 40.9 ± 3.21 µM | 3.73 | – | – | – | – | – | – | – | –

Source: article PMC8588048, “Discovery of Guanidine Derivatives from Buthus martensii Karsch with Metal-Binding and Cholinesterase Inhibition Properties” (Molecules, 2021)
